Experiment [1] concerns the target IRAK4 (Homo sapiens (Human), UniProt Q9NWZ3). Kind of experiment: IRAK4 Inhibition Assay. It is filed as biochemical. As to conditions: IRAK4 Inhibition Assay; ATP 500 μM; read-out: IRAK4 IC50. Summed up:
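IRAK4 combined with fluorescent substrate and compounds, reacted 60 min at room temperature, stopped with 35 mM EDTA. Substrate and phosphorylated product separated electrophoretically on a Caliper LabChip 3000 mobility-shift reader.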

The test system of experiment [2] is TLR2 induced IL-6 in peripheral blood mononuclear cells (PBMCs). As to the kind of experiment: PBMC TLR2 Induced IL-6 Assay. It is filed as cell-based, human. The settings on record: Homo sapiens, PBMC, PBMC TLR2 Induced IL-6 Assay; lipoteichoic acid stimulation, IL-6 by ELISA; read-out: Cell IC50. In a few lines:
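Lipoteichoic acid at 10 µg/ml served as TLR2 stimulus for 5 hours, following a 30-minute compound pretreatment at 37° C. Cells were Ficoll-isolated human PBMCs, 250000 cells/well, cultured in RPMI plus 10% heat-inactivated FCS.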
For orientation: ELISA stands for enzyme-linked immunosorbent assay.

For orientation: IC50 means the concentration that inhibits the measured activity by half.

Chain of IRAK4 (Q9NWZ3 whole entry, species assumed): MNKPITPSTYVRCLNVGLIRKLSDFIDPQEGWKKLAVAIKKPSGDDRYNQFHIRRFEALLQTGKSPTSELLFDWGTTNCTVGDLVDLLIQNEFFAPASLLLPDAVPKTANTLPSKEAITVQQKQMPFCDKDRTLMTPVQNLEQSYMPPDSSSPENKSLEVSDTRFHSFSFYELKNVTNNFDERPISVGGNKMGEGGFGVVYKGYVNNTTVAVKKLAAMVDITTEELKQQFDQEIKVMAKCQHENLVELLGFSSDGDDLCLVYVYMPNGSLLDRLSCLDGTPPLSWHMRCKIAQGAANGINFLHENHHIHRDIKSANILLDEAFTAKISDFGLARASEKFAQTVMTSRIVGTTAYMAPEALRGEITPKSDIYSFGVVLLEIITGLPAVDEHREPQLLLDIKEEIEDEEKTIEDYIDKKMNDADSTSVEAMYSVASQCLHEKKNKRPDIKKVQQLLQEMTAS

Turning to `CC(C)Nc1cc(-n2ncc3cc(C#N)cnc32)ncc1C(=O)Nc1cnn(C2CCOCC2)c1` [Example 271], the figures for the IC50 in experiment [1] and in experiment [2] were 15.9 nM and 176 nM, respectively.

For `CC(C)Nc1cc(-n2ncc3cc(C#N)cnc32)ncc1C(=O)NC1CCN(S(=O)(=O)C(C)C)CC1` [Example 272], the results for the IC50 in experiment [1] and in experiment [2] were 5.1 nM and 737 nM, respectively.

Regarding `CC(C)Nc1cc(-n2ncc3cc(C#N)cnc32)ncc1C(=O)NC1CCN(C(=O)C(C)C)CC1` [Example 273], the results for the IC50 in experiment [1] and in experiment [2] were 18.6 nM and 94 nM, respectively.

Consider `CC(C)Nc1cc(-n2ncc3cc(C#N)cnc32)ncc1C(=O)NCCC1CCN(C(=O)CC#N)CC1` [Example 275], for which the values for the IC50 in experiment [1] and in experiment [2] were 8 nM and 115 nM, respectively.

Take `CC(C)Nc1cc(-n2ncc3cc(C#N)cnc32)ncc1C(=O)NCCc1cccnc1` [Example 276]: the IC50 in experiment [1] was 4.7 nM; in experiment [2], 380 nM.

For the molecule `CC(C)Nc1cc(-n2ncc3cc(C#N)cnc32)ncc1C(=O)NCCC1(O)CCC(C)(O)CC1` (centres unmarked) [Example 277], the IC50 in experiment [1] was found to be 5.9 nM; in experiment [2], 251 nM.

For the molecule `CC(C)Nc1cc(-n2ncc3cc(C#N)cnc32)ncc1C(=O)NCCC1(O)CCC(F)(F)CC1` [Example 279], the results for the IC50 in experiment [1] and in experiment [2] were 6.5 nM and 247 nM, respectively.

As to `CC(C)CC(=O)NCc1cnc2c(cnn2-c2cc(NC(C)C)c(C(=O)NC[C@@H](F)C(C)(C)O)cn2)c1` [Example 280], the IC50 in experiment [1] came to 16.9 nM; in experiment [2] it was 692 nM.

As to `CC(C)Nc1cc(-n2ncc3cc(C#N)cnc32)ncc1C(=O)Nc1cnn(C2CN(S(C)(=O)=O)C2)c1` [Example 281], the IC50 in experiment [1] was found to be 7.8 nM; in experiment [2], 255 nM.

As for `CC[C@@H](C)Nc1cc(-n2ncc3cc(C#N)cnc32)ncc1C(=O)NC[C@@H](F)C(C)(C)O` [Example 283], the IC50 in experiment [1] turned out to be 2.8 nM; in experiment [2], 135 nM.

Consider `CC(C)Nc1cc(-n2ncc3cc(C#N)cnc32)ncc1C(=O)Nc1cnn(CC(F)F)c1` [Example 285], for which the IC50 was found to be 10 nM in experiment [1] and 200 nM in experiment [2].

For `CC(C)(C)Nc1cc(-n2ncc3cc(C#N)cnc32)ncc1C(=O)NC[C@@H](F)C(C)(C)O` [Example 286], the IC50 in experiment [1] stood at 1.7 nM; in experiment [2], 158 nM.

`CC[C@H](C)Nc1cc(-n2ncc3cc(C#N)cnc32)ncc1C(=O)NC[C@@H](F)C(C)(C)O` [Example 289]: the IC50 is 4.7 nM in experiment [1] and 275 nM in experiment [2].

For `CCS(=O)(=O)N1CCC(NC(=O)c2cnc(-n3ncc4cc(C#N)cnc43)cc2NC(C)C)CC1` [Example 290], the values for the IC50 in experiment [1] and in experiment [2] were 5.9 nM and 364 nM, respectively.

In the case of `COC1CCC(O)(CCNC(=O)c2cnc(-n3ncc4cc(C#N)cnc43)cc2NC(C)C)CC1` (centres unmarked) [Example 291], the IC50 in experiment [1] worked out at 3.5 nM; in experiment [2], 349 nM.

As for `CC1(Nc2cc(-n3ncc4cc(C#N)cnc43)ncc2C(=O)NC[C@@H](F)C(C)(C)O)CC1` [Example 292], the figures for the IC50 in experiment [1] and in experiment [2] were 2.7 nM and 456 nM, respectively.

Turning to `CC(C)(C)Nc1cc(-n2ncc3cc(C#N)c(N)nc32)ncc1C(=O)NC[C@@H](F)C(C)(C)O` [Example 293], the IC50 stood at 1 nM in experiment [1] and 32 nM in experiment [2].

Take `CC(C)Nc1cc(-n2ncc3cc(C#N)cnc32)ncc1C(=O)NCC(F)=C1CCOCC1` [Example 294]: the half-maximal inhibitory concentration (IC50) came out at 13.4 nM in experiment [1] and 292 nM in experiment [2].

Take `CC(C)Nc1cc(-n2ncc3cc(C#N)c(N)nc32)ncc1C(=O)NC[C@@H](F)C(C)(C)F` [Example 295]: the 50% inhibitory concentration (IC50) came out at 1.9 nM in experiment [1] and 240 nM in experiment [2].

With `CC(C)Nc1cc(-n2ncc3cc(C#N)cnc32)ncc1C(=O)N[C@@H]1CC[C@@H](C(C)(C)O)OC1` [Example 296], the IC50 in experiment [1] came to 7.1 nM; in experiment [2], 412 nM.

On to `CC(C)CCNC(=O)c1cnc(-n2ncc3cc(C#N)cnc32)cc1NC(C)C` [Example 298], for which the half-inhibitory concentration (IC50) was found to be 4.5 nM in experiment [1] and 142 nM in experiment [2].

For the molecule `CC(C)Nc1cc(-n2ncc3cc(C#N)c(N)nc32)ncc1C(=O)NCCC1CC1` [Example 299], the IC50 in experiment [1] stood at 6.3 nM; in experiment [2] it was 252 nM.

On to `CC[C@@H](C)Nc1cc(-n2ncc3cc(C#N)c(N)nc32)ncc1C(=O)NC[C@@H](F)C(C)(C)O` [Example 300], for which the IC50 in experiment [1] amounted to 1.6 nM; in experiment [2], 83 nM.

Regarding `CC(Nc1cc(-n2ncc3cc(C#N)c(N)nc32)ncc1C(=O)NC[C@@H](F)C(C)(C)O)C(F)(F)F` (some centres unmarked) [Example 301], the IC50 in experiment [1] was 2.4 nM; in experiment [2] it was 63 nM.

Regarding `CC(C)Nc1cc(-n2ncc3cc(C#N)cnc32)ncc1C(=O)NCCC1CC1` [Example 302], the IC50 was 4.1 nM in experiment [1] and 148 nM in experiment [2].

Regarding `CC(C)CCNC(=O)c1cnc(-n2ncc3cc(C#N)c(N)nc32)cc1NC(C)C` [Example 303], the IC50 was 3.5 nM in experiment [1] and 176 nM in experiment [2].

Regarding `CC(C)Nc1cc(-n2ncc3cc(C#N)cnc32)ncc1C(=O)Nc1cnn(CC(C)(C)O)c1` [Example 304], the IC50 in experiment [1] is 10.7 nM; in experiment [2] it was 408 nM.

As for `CNC(=O)c1cnc(-n2ncc3cc(C#N)c(N)nc32)cc1NC(C)C` [Example 305], the results for the half-inhibitory concentration (IC50) in experiment [1] and in experiment [2] were 9.2 nM and 207 nM, respectively.

With `CC(C)Nc1cc(-n2ncc3cc(C#N)cnc32)ncc1C(=O)NCCC(C)(C)NS(C)(=O)=O` [Example 306], the IC50 was found to be 4.8 nM in experiment [1] and 800 nM in experiment [2].

As to `CC(C)Nc1cc(-n2ncc3cc(C#N)c(N)nc32)ncc1C(=O)NCCC(C)(C)F` [Example 307], the IC50 was 2 nM in experiment [1] and 127 nM in experiment [2].

`CC(C)Nc1cc(-n2ncc3cc(C#N)cnc32)ncc1C(=O)NC[C@@H](F)C(C)(C)F` [Example 308]: the IC50 in experiment [1] was 3 nM; in experiment [2], 73 nM.

Take `CC(C)Nc1cc(-n2ncc3cc(C#N)cnc32)ncc1C(=O)NC1CCN(S(=O)(=O)NC(C)C)CC1` [Example 309]: the concentration for half-maximal inhibition (IC50) in experiment [1] amounted to 18.4 nM; in experiment [2] it was 207 nM.

As to `CC(C)Nc1cc(-n2ncc3cc(C#N)cnc32)ncc1C(=O)NCCC1CCOCC1` [Example 310], the 50% inhibitory concentration (IC50) in experiment [1] is 4.5 nM; in experiment [2] it was 23 nM.

As to `CC(C)Nc1cc(-n2ncc3cc(C#N)cnc32)ncc1C(=O)NCCc1c[nH]cn1` [Example 311], the IC50 in experiment [1] turned out to be 4.7 nM; in experiment [2], 347 nM.

`CC(C)Nc1cc(-n2ncc3cc(C#N)cnc32)ncc1C(=O)NC[C@@H](F)C(C)C` [Example 312]: the IC50 in experiment [1] is 9.2 nM; in experiment [2], 375 nM.

With `CNS(=O)(=O)N1CCC(NC(=O)c2cnc(-n3ncc4cc(C#N)cnc43)cc2NC(C)C)CC1` [Example 313], the IC50 worked out at 14.7 nM in experiment [1] and 289 nM in experiment [2].

As for `CC(C)Nc1cc(-n2ncc3cc(C#N)cnc32)ncc1C(=O)NC[C@@H](F)C(C)(C)OC(F)F` [Example 314], the IC50 in experiment [1] was found to be 13.7 nM; in experiment [2] it was 420 nM.

Take `CC(C)Nc1cc(-n2ncc3cc(C#N)cnc32)ncc1C(=O)NC[C@@H](F)C(O)(C1CC1)C1CC1` [Example 315]: the values for the IC50 in experiment [1] and in experiment [2] were 10.7 nM and 267 nM, respectively.

With `CC(=O)N[C@H]1CC[C@H](NC(=O)c2cnc(-n3ncc4cc(C#N)c(N)nc43)cc2NC(C)C)CC1` [Example 317], the IC50 is 3.8 nM in experiment [1] and 172 nM in experiment [2].

With `C[C@@H](CO)Nc1cc(-n2ncc3cc(C#N)cnc32)ncc1C(=O)NCCC1CC1` [Example 318], the IC50 in experiment [1] came to 7.9 nM; in experiment [2], 188 nM.

In the case of `CCCCNC(=O)c1cnc(-n2ncc3cc(C#N)cnc32)cc1N[C@@H](C)CO` [Example 319], the IC50 came out at 6.5 nM in experiment [1] and 191 nM in experiment [2].

Take `CC(C)CCNC(=O)c1cnc(-n2ncc3cc(C#N)cnc32)cc1N[C@@H](C)CO` [Example 320]: the results for the IC50 in experiment [1] and in experiment [2] were 5.6 nM and 261 nM, respectively.

In the case of `COC(C)(C)[C@H](F)CNC(=O)c1cnc(-n2ncc3cc(C#N)c(N)nc32)cc1NC(C)C` [Example 321], the values for the IC50 in experiment [1] and in experiment [2] were 3.1 nM and 53 nM, respectively.

For `CC(C)Nc1cc(-n2ncc3cc(C#N)c(N)nc32)ncc1C(=O)NC1(C)CC1` [Example 322], the IC50 in experiment [1] was determined as 6.7 nM; in experiment [2], 159 nM.

With `CC(C)Nc1cc(-n2ncc3cc(C#N)c(N)nc32)ncc1C(=O)N[C@H](C)C1CC1` [Example 323], the IC50 came to 17.3 nM in experiment [1] and 612 nM in experiment [2].

For the molecule `CC(C)Nc1cc(-n2ncc3cc(C#N)c(N)nc32)ncc1C(=O)NC1CCCCC1` [Example 324], the IC50 was determined as 6.6 nM in experiment [1] and 278 nM in experiment [2].

`CC(C)Nc1cc(-n2ncc3cc(C#N)c(N)nc32)ncc1C(=O)NC1(C#N)CC1` [Example 325]: the IC50 in experiment [1] came to 6 nM; in experiment [2], 227 nM.

`CCCNC(=O)c1cnc(-n2ncc3cc(C#N)c(N)nc32)cc1NC(C)C` [Example 326]: the IC50 worked out at 11.4 nM in experiment [1] and 30 nM in experiment [2].

Turning to `CC(C)Nc1cc(-n2ncc3cc(C#N)c(N)nc32)ncc1C(=O)NC1C=CCC1` (centres unmarked) [Example 327], the figures for the IC50 in experiment [1] and in experiment [2] were 11.1 nM and 181 nM, respectively.

With `CC(C)Nc1cc(-n2ncc3cc(C#N)c(N)nc32)ncc1C(=O)NC[C@@H](C)F` [Example 328], the figures for the IC50 in experiment [1] and in experiment [2] were 10 nM and 11 nM, respectively.

On to `CC(C)Nc1cc(-n2ncc3cc(C#N)cnc32)ncc1C(=O)NCC(F)C1CCOCC1` (centres unmarked) [Example 329], for which the IC50 in experiment [1] is 4.9 nM; in experiment [2], 76 nM.

In the case of `CC(C)Nc1cc(-n2ncc3cc(Cl)cnc32)ncc1C(=O)NC[C@@H](F)C(C)(C)F` [Example 330], the IC50 in experiment [1] stood at 4.3 nM; in experiment [2], 512 nM.

Source of the values: patent US9169252B2 (BRISTOL-MYERS SQUIBB COMPANY, priority 2014, dated 2015).
